Patent US11931340B2, “Use of sublingual dexmedetomidine for the treatment of agitation” (BioXcel Therapeutics, Inc., priority 2016, dated 2024)
Entries after “also recorded” stand apart in the source; their conditions may differ. Counter-ions that a name gives are not always drawn. Like-named read-outs stand apart in the source and are kept apart here.

Assays:
[1] = system: rat ‘resident-intruder’ model of agitation or aggression; test: Rat resident-intruder model of agitation or aggression; format: in vivo; details: for sublingual vs intravenous route: duration of the behavioral indices of aggression and agitation: doses of 1 and 1.5 μg/kg, student t-test
Description: The resident-intruder model is an established preclinical model of aggression and agitation, and allows spontaneous and natural expression of both offensive aggression/agitation and defensive behavior in laboratory rodents in a semi natural laboratory setting.
Animals: 12-13 week old male Wistar rats weighing 380-400 g were used as resident males. 7-8 weeks old male rats weighing 280-300 g were used as the “intruder”. Resident rats were housed with female rats for 8 days to establish territoriality. The intruder rats were housed in groups of 3 with other male rats of similar age/body weight. All animals were maintained in a controlled environment with 22±3° C. temperature, 50±20% humidity, a light/dark cycle of 12 hours each and 15-20 fresh air changes per hour and had access to food and water ad-libitum. All animal experiments were conducted in accordance with the guidelines of the Committee for the Purpose of Control and Supervision of Experiments on Animals (CPCSEA), Government of India the Association for Assessment and Accreditation of Laboratory Animal Care international (AAALAC).
Dilutions were prepared fresh every day prior to dosing using 0.9% normal saline from the formulation 4 for the entire study.
Experimental Procedure: Following acclimatization for a period of 3-5 days, each resident male rat was housed with a female rat for 8 days. On day 8, basal aggression in the resident males was tested by exposing them to an “intruder rat” for 10 minutes. […] These animals were then randomized using body weight stratification method. […] Animals were housed with the female rat for an additional day. On day 9, the resident animal was paired with intruder animal of an appropriate bodyweight such that the body weight of the resident was always higher than the intruder. This was to facilitate dominant, aggressive behavior in the resident animals. After randomization, animals were assigned a permanent number. Cages were identified by cage cards indicating the study number, study code, group number, sex, dose, cage number and animal number details.
For sublingual dosing, the rats were held in one hand and using a blunt spatula the tongue was moved to one side of the mouth. […] Diazepam was used as a reference compound and was dosed intraperitoneally. Vehicle controls were treated with 0.9% saline administered sublingually or intravenously.
The behavior of the resident rat was recorded using an overhead video camera for 15 minutes and offline behavioral analysis was done using the Noldus Ethovision XT software. To distinguish the resident rat from the intruder rat in the video recording, the intruder rat was marked with non-toxic paint.
Statistical Analysis: Statistical analysis was performed using validated statistical software (GraphPad Prism 6). Data is represented as Mean±SEM. One-way ANOVA (analysis of variance) followed by “Dunnett's Multiple Comparison Test” at 95% confidence interval was applied for comparison of the relevant groups. p<0.05 was considered significant.

[2] = rat, in vivo
Method: Objective: To estimate Dexmedetomidine levels in rat plasma samples obtained after dosing animals via intravenous and sublingual routes at doses of 0.5, 1, 1.5 and 3 μg/kg.
Blood was collected under mild isoflurane anesthesia from the retro-orbital plexus at 0, 5, 15, 30, 60 and 120 minutes post dosing. Plasma was separated and stored at −80° C. until Dexmedetomidine concentration was analyzed.
Analytical Methods: Samples were analysed by using Agilent 1290 Infinity II HPLC system coupled to AB Sciex Triple Quad instrument (API-5000). Chromatographic separation was done using Agilent Zorbax Eclipse plus C18 column (50*2.1 mm, 1.8 μm) in gradient mode. The mobile phase consisted of 10 mM Ammonium Formate with pH 3.5 (Mobile phase A) and 100% Acetonitrile (Mobile phase B). The column temperature was 40° C. and flow rate was 0.35 mL/min. The MS instrument was operated in the positive mode (ESI+). For analysis, 2 μL of sample was injected into the LC-MS/MS instrument. Auto sampler temperature was 7° C.
WCX SPE 96 well plate was used for sample preparation. 50 μl of plasma sample was used for extraction. Along with study samples, one set of linearity and two sets of quality controls (QC) were also processed.
Sample pretreatment: To 50 μl of plasma, 10 μl of tolbutamide working solution was added (Tolbutamide 250 ng/ml). After mixing, […], of buffer solution (10 mM Ammonium Formate pH 3.5) was added. Contents were vortex mixed and loaded to preconditioned SPE plate.
After placing the cartridges in the negative pressure SPE unit, they were conditioned by passing 200 μl of 100% methanol followed by 200 μl of water. The pretreated plasma samples were then loaded to the pre-conditioned cartridges.
After loading pretreated plasma samples, cartridges were washed with 100 μl of 0.1% ammonia solution. Finally, bound analyte was eluted with 50 μl of 0.1% formic acid in acetonitrile. This step was repeated twice for complete elution. Final eluent volume was 100 μL. To 100 μL of eluent, 50 μL of 10 mM ammonium formate (pH 3.5) was added samples were vortex mixed and transferred to a 96-well HPLC sample plate (Agilent) and submitted for LC-MS/MS analysis. For LC-MS/MS analysis, 2 μL of sample was injected. Calibration standards and QCs were processed the same way as done for study samples.
The calibration curve was fitted by linear regression. The concentrations in the QC and test samples (pg/mL) were obtained from the Analyst software based on the calibration curve. […] 2) The correlation coefficient (r) of the calibration curve must be greater than or equal to 0.99. 3) At least two-thirds (4 out of 6) QC samples must be within ±20% relative error (accuracy)

SMILES: Cc1cccc([C@H](C)c2cnc[nH]2)c1C [Dexmedetomidine hydrochloride, (S)-4-[1-(2,3-Dimethylphenyl)ethyl]-3H-imidazole]
- doses that effectively reduced the behavioral indices of aggression and agitation without majorly impacting the neutral behaviors ([1]; administered sublingually or intravenously, doses used 0.5-3 μg/kg): 1 to 1.5 µg/kg
- various indices of agitation and aggression ([1]; conclusion, rat resident intruder model): effectively reduces various indices of agitation and aggression
- sublingual vs intravenous route: duration of the behavioral indices of aggression and agitation [1]: correlates with intravenously administered Dexmedetomidine hydrochloride
- sublingual vs intravenous route: duration of the behavioral indices of aggression and agitation ([1]; listed as dexmedetomidine hydrochloride): No significant differences (i.e. similar effect via sublingual
- latency to attack the intruder rat, significance vs vehicle controls ([1]; intravenous, 3 μg/kg, FIG. 2B): significant compared to vehicle controls
- neutral behavior: immobile/quiet time ([1]; intravenous, 3 μg/kg, FIG. 3F): significantly increased the immobile/quiet time
- neutral behaviors: grooming and exploration compared to vehicle controls ([1]; intravenous, 0.5-3 μg/kg, except at a dose of 3 μg/kg): did not significantly affect grooming and exploration
- indices of aggressive and agitated behaviors ([1]; intravenous, 0.5-3 μg/kg, FIG. 1C, 1D): reduced all the indices of aggressive and agitated behaviors
- anogenital sniffing, biting and attacking compared to vehicle controls ([1]; intravenous, doses above 0.5 μg/kg, FIG. 1C, 1D): significant reduction
- latency to attack the intruder rat compared to the vehicle control group ([1]; prior treatment, dose related manner, route not stated): significant increase in the latency to attack the intruder rat
- neutral behavior: exploration compared to vehicle controls ([1]; sublingual, 1.5 μg/kg & 3 μg/kg, FIGS. 3A and 3B): reduction in exploration
- frequency and duration of aggressive and agitated behaviors (anogenital sniffing, chasing, biting, attacking) ([1]; sublingual, 0.5-3 μg/kg, 15 minutes prior to testing, FIG. 1A, 1B): reduced the frequency and duration of these behaviors in a dose related manner; also recorded: dose related reduction
- latency to attack the intruder rat ([1]; sublingual, 0.5-3 μg/kg, dose related, FIG. 2A): increase in the latency to attack the intruder rat
- neutral behaviors: grooming and exploration compared to vehicle controls ([1]; sublingual, 0.5-3 μg/kg, except exploration at 1.5 and 3 μg/kg, FIGS. 3A and 3B): No significant changes
- chasing and attacking compared to vehicle control group ([1]; sublingual, 0.5-3 μg/kg, FIG. 1A, 1B): Significant reduction
- neutral behavior: immobile/quiet time compared to vehicle controls ([1]; sublingual, 0.5-3 μg/kg, FIG. 3C): no significant effect
- neutral behavior of animals ([1]; sublingually administered): No changes were observed
- Plasma concentrations between 15 to 30 min [2]: 43±13.5 to 90±12.1
- effect of dose on plasma concentrations [2]: dose-related effect on plasma concentrations
- plasma concentrations between 15 to 30 min [2]: 27±7.1-114±1.7
- effect of dose on plasma concentrations ([2]; iv): dose-dependent effect on plasma concentrations

SMILES: CN1C(=O)CN=C(c2ccccc2)c2cc(Cl)ccc21 [Diazepam]
- indices of aggressive and agitated behaviors ([1]; 3 mg/kg, i.p., FIG. 1A-1D): significant reduction in all the indices of aggressive and agitated behaviors
- attacking behavior / latency to attack ([1]; 3 mg/kg, i.p., FIGS. 2A and 2B): complete lack of attacking behavior
- frequency and duration of neutral behaviors ([1]; 3 mg/kg, ip): significantly reduced the frequency and duration of all neutral behaviors
